The text below walks through data of ChEMBL document CHEMBL3864133, “Discovery of a Potent and Selective in Vivo Probe (GNE-272) for the Bromodomains of CBP/EP300” (J Med Chem, 2016).

The target in data set [1] is T1, Bromodomain-containing protein 4 (Homo sapiens, UniProt O60885). Put plainly: Displacement of biotinylated ligand from recombinant His-tagged BRD4 bromodomain-1 (unknown origin) measured after 10 mins by TR-FRET assay. A general note: TR-FRET usually uses a lanthanide donor and a delayed reading to cut background.
Data set [2] has as its target T2, CREB-binding protein/Histone acetyltransferase p300 (Homo sapiens, UniProt Q09472+Q92793). Put plainly: Displacement of biotinylated ligand from recombinant His-tagged CBP/EP300 (unknown origin) measured after 10 mins by TR-FRET assay. Format: protein assay.
Data set [3] has as its target T1, Bromodomain-containing protein 4. Kind of data set: Displacement of biotinylated ligand from BRD4 bromodomain-1 (unknown origin) by TR-FRET assay.
The target of data set [4] is T3, CREB-binding protein (Homo sapiens, UniProt Q92793). Put plainly: Inhibition of Halo-tagged histone H3.3 binding to NanoLuc luciferase conjugated CBP (unknown origin) expressed in HEK293 cells after overnight incubation by BRET assay. Format: cell-based. (In general: Bioluminescence resonance energy transfer reports proximity on the nanometre scale.)
T3 sequence (Q92793 whole entry): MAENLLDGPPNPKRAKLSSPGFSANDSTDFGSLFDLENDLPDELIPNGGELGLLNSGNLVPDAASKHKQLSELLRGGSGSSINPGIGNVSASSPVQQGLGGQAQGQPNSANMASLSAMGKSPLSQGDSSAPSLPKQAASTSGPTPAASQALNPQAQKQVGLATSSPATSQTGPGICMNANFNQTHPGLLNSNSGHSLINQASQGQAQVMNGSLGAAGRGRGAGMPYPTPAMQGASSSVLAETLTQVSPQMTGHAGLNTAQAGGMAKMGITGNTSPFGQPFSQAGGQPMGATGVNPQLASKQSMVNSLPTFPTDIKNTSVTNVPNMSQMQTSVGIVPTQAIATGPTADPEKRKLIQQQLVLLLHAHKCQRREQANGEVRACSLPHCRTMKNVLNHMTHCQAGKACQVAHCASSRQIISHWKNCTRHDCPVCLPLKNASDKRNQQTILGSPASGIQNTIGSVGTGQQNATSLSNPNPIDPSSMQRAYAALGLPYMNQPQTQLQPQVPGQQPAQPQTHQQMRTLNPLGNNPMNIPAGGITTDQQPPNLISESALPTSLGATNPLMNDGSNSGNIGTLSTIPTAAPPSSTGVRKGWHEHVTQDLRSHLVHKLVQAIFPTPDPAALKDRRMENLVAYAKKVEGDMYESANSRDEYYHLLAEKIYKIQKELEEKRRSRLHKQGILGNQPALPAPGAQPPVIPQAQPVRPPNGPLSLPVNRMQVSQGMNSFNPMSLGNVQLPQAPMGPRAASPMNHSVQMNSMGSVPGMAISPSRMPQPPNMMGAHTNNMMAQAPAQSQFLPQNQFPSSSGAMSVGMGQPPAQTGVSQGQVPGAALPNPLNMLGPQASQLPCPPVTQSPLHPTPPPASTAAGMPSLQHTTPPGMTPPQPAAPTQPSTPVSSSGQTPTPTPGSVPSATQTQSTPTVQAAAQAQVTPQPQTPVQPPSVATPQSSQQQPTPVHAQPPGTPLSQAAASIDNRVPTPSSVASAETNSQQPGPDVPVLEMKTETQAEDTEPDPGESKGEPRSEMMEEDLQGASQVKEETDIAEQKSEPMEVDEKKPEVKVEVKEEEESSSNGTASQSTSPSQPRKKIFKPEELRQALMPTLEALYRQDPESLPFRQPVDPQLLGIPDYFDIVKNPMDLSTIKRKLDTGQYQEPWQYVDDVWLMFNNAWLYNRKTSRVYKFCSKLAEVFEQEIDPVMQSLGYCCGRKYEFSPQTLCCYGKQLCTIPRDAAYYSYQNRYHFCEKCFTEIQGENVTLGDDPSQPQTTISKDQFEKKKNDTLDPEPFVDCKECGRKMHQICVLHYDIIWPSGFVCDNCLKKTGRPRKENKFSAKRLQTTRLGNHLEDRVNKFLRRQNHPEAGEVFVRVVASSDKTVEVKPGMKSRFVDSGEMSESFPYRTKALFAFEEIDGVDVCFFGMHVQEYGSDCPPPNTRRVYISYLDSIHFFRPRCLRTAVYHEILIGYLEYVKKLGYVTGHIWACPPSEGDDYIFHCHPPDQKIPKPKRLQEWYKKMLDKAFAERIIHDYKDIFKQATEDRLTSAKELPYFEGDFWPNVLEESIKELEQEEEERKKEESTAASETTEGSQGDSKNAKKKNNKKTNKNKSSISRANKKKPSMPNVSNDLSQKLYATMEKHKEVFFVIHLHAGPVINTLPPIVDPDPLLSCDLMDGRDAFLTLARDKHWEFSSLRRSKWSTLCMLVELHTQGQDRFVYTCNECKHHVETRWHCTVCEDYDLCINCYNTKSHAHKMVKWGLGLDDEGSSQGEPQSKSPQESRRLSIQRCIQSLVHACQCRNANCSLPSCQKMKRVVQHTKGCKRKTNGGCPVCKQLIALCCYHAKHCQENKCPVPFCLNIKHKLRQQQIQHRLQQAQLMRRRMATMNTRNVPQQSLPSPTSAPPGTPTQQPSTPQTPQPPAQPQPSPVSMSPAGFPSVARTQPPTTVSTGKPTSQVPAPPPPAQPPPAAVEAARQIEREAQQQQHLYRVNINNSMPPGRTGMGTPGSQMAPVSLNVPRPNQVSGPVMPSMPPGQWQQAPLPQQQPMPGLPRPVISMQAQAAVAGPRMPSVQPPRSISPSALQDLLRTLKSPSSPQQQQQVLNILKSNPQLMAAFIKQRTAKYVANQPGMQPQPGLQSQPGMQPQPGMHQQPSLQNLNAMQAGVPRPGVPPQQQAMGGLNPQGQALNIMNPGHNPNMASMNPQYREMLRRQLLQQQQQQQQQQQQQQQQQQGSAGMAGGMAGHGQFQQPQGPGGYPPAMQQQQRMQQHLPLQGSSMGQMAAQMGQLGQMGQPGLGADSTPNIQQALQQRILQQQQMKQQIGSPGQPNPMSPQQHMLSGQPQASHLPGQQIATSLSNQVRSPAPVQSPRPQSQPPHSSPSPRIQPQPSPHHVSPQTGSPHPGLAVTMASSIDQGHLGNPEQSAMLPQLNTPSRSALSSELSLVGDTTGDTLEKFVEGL
Data set [5] deals with T3, CREB-binding protein. Kind of data set: Displacement of biotinylated ligand from CBP (unknown origin) by TR-FRET assay.
The target in data set [6] is T2, CREB-binding protein/Histone acetyltransferase p300. Put plainly: Inhibition of CBP/EP300 (unknown origin) assessed as reduction in MYC expression by cell based assay.
Data set [7] in a line: Apparent permeability of the compound across apical side to basolateral side in MDCK cells at 10 uM measured after 180 mins by LC-MS/MS analysis. The data set is classed as ADME, cell-based, Canis lupus familiaris. The settings on record: dog.
The target in data set [8] is T2, CREB-binding protein/Histone acetyltransferase p300. Kind of data set: Inhibition of Halo-tagged histone H3.3 binding to CBP/EP300 (unknown origin) expressed in HEK293 cells measured after overnight incubation by luciferase reporter gene based BRET assay. Format: cell-based. (In general: A reporter such as luciferase makes a cellular process visible.)
Data set [9] is described as follows: Oral bioavailability in mouse. Format: ADME, organism-based. To be noted: in vivo.
A short description of data set [10]: Clearance in mouse. Format: ADME, organism-based. To be noted: in vivo.
Data set [11] in a line: Drug metabolism in mouse liver microsomes assessed as phenyl ring oxidation at 10 uM up to 1 hr in presence of NADPH by LC-MS analysis. The data set is classed as ADME.
Data set [12] can be described thus: Drug metabolism in mouse liver microsomes assessed as cleavage of cyclopropylmethyl moiety at 10 uM up to 1 hr in presence of NADPH by LC-MS analysis. The data set is classed as ADME.
A short description of data set [13]: Drug metabolism in human liver microsomes assessed as cleavage of cyclopropylmethyl moiety at 10 uM up to 1 hr in presence of NADPH by LC-MS analysis. Format: ADME.
A short description of data set [14]: Drug metabolism in human liver microsomes assessed as phenyl ring oxidation at 10 uM up to 1 hr in presence of NADPH by LC-MS analysis. Format: ADME.
Data set [15] is described as follows: Drug metabolism in CD-1 mouse hepatocytes assessed as glucuronidation of compound at 1 uM up to 180 mins by LC-MS/MS analysis. Format: ADME, cell-based, Hepatocyte. To be noted: 3 h.

Broadly, the IC50 is the concentration at which inhibition is half-maximal. For `CC(=O)N1CCc2c(c(Nc3ccc(-c4cnn(C)c4)cc3)nn2C2CCOC2)C1` (single isomer, unassigned; 57), the IC50 in data set [1] turned out to be 8.5 µM.
Turning to `COC(=O)c1cccc(Nc2n[nH]c3c2CN(C(C)=O)CC3)c1`, the 50% inhibitory concentration (IC50) in data set [1] was found to be 18 µM; in data set [2] it was 0.11 µM.
Broadly, the EC50 is the midpoint of the concentration-response curve. As to `CCCOc1ccc(CCc2nc3cc(-c4c(C)noc4C)ccc3n2CCN2CCOCC2)cc1`, the concentration for half-maximal inhibition (IC50) in data set [3] is 2.9 µM; in data set [4], above 10 µM; in data set [5], 0.19 µM. Besides, the EC50 in data set [6] turned out to be 6.6 µM.
One may read the Papp A→B as the apparent permeability from the apical to the basolateral side of a cell layer. On to `CC(=O)N1CCc2c(c(Nc3cccc(-c4ccccn4)c3)nn2CC2CC2)C1`, for which the apparent permeability from apical to basolateral (Papp A→B) at 3 h, 10 µM in data set [7] came to 15 ×10⁻⁶ cm/s. In addition, the IC50 was 0.56 µM in data set [8] and 0.03 µM in data set [2].
With `CC(=O)N1CCc2c(c(Nc3cccc(C)c3)nn2Cc2cccnc2)C1`, the 50% inhibitory concentration (IC50) in [1] worked out at 5.6 µM.
Consider `CC(=O)N1CCc2[nH]nc(Nc3cccc(F)c3)c2C1`, for which the IC50 in data set [1] was above 20 µM; in [2], 0.43 µM.
Regarding `COC(=O)c1ccc(Nc2n[nH]c3c2CN(C(C)=O)CC3)cc1`, the values for the concentration for half-maximal inhibition (IC50) in [1] and in [2] were above 20 µM and 0.14 µM, respectively.
As to `CC(=O)N1CCc2c(c(Nc3cccc(C)c3)nn2CCO)C1`, the IC50 in [1] was above 20 µM.
Still for that read-out and setting: in the case of `CC(=O)N1CCc2c(c(Nc3ccc(-c4cnn(C)c4)cc3)nn2C2CCOC2)C1` (single isomer, unassigned; 58) it was 11 µM; in that of `CC(=O)N1CCc2c(c(Nc3cccc(C)c3)nn2C)C1`, above 20 µM.
Take `CC(=O)N1CCc2c(c(Nc3ccc(-c4cnn(C)c4)cc3)nn2C2COC2)C1`: the IC50 in data set [8] amounted to 1.2 µM; in data set [1], 11 µM; in data set [2], 0.04 µM.
In the case of `CC(=O)N1CCc2c(c(Nc3cccc(-c4ccncc4)c3)nn2CC2CC2)C1`, the Papp A→B at 3 h, 10 µM in data set [7] worked out at 20 ×10⁻⁶ cm/s. The concentration for half-maximal inhibition (IC50) in data set [1] turned out to be 0.87 µM.
Usually bioavailability stands for dose-corrected exposure relative to a reference, in per cent. The low end stands for little systemic uptake, the high end for much systemic uptake. Usually clearance stands for a measure of how efficiently the substance is removed, as volume per time. A high value points to a high capacity for elimination. With `CC(=O)N1CCc2c(c(Nc3cccc(C(=O)NC(C)C)c3)nn2CC2CC2)C1`, the apical-to-basolateral permeability (Papp A→B) at 3 h, 10 µM in data set [7] was determined as 2.4 ×10⁻⁶ cm/s. Besides, the concentration for half-maximal inhibition (IC50) in [8] stood at 0.96 µM; in [2], 0.03 µM. The bioavailability in [9] came out at 5%. The molecule also had a clearance in data set [10] of 43 mL/min/kg.
Consider `CC(=O)N1CCc2c(c(Nc3cccc(C)c3)nn2CCC2CC2)C1`, for which the results for the IC50 in data set [1] and in data set [2] were 9.8 µM and 0.18 µM, respectively.
On to `CC(=O)N1CCc2[nH]nc(Nc3ccccc3C)c2C1`, for which the 50% inhibitory concentration (IC50) in data set [1] was above 20 µM; in data set [2], 1.2 µM.
The corresponding values for `CC(=O)N1CCc2[nH]nc(Nc3cccc(C)c3)c2C1` are above 20 µM and 0.34 µM.
The corresponding values for `Cc1cccc(Nc2n[nH]c3c2CN(C(=O)C2CC2)CC3)c1` are above 20 µM and 4.1 µM.
For `CC(=O)N1CCc2c(c(Nc3cccc(-c4ccnn4C)c3)nn2CC2CC2)C1`, the apparent permeability from apical to basolateral (Papp A→B) at 3 h, 10 µM in data set [7] was 15 ×10⁻⁶ cm/s. Besides, in [1], the concentration for half-maximal inhibition (IC50) was 3.7 µM.
In the case of `CC(=O)N1CCc2c(c(Nc3cccc(C)c3)nn2CC2CC2)C1`, the IC50 in [1] was 13 µM.
For the molecule `CCc1cccc(Nc2n[nH]c3c2CN(C(C)=O)CC3)c1`, the IC50 is above 20 µM in data set [1] and 0.19 µM in data set [2].
On to `CC(=O)N1CCc2c(c(Nc3cccc(-c4ccccc4)c3)nn2CC2CC2)C1`, for which the apical-to-basolateral permeability (Papp A→B) at 3 h, 10 µM in data set [7] was 26 ×10⁻⁶ cm/s. Besides, the IC50 in data set [8] worked out at 2.5 µM; in [1], 4.6 µM.
As to `COc1cccc(Nc2n[nH]c3c2CN(C(C)=O)CC3)c1`, the IC50 in [1] was above 20 µM; in [2], 0.34 µM.
Regarding `CCCn1nc(Nc2cccc(C)c2)c2c1CCN(C(C)=O)C2`, the IC50 in [1] worked out at 14 µM; in data set [2], 0.07 µM.
Take `CCNC(=O)c1cccc(Nc2nn(CC3CC3)c3c2CN(C(C)=O)CC3)c1`: the figures for the concentration for half-maximal inhibition (IC50) in data set [8], in [1] and in data set [2] were 1.5 µM, 7.7 µM and 0.04 µM, respectively.
As to `COCCn1nc(Nc2cccc(C)c2)c2c1CCN(C(C)=O)C2`, the half-inhibitory concentration (IC50) in [1] is above 20 µM.
As for `CC(=O)N1CCc2[nH]nc(Nc3cccc(C(F)(F)F)c3)c2C1`, the half-inhibitory concentration (IC50) in [1] is 18 µM; in [2], 0.1 µM.
For `CC(=O)N1CCc2c(c(Nc3cccc(C)c3)nn2Cc2ccncc2)C1`, the 50% inhibitory concentration (IC50) in data set [1] stood at 5.9 µM.
Turning to `CCCNC(=O)c1cccc(Nc2nn(CC3CC3)c3c2CN(C(C)=O)CC3)c1`, the IC50 amounted to 1.3 µM in [8], 5.8 µM in [1] and 0.03 µM in [2].
For the molecule `CC(=O)N1CCc2c(c(Nc3cccc(-c4cnn(C)c4)c3)nn2CC2CC2)C1`, the apparent permeability from apical to basolateral (Papp A→B) at 3 h, 10 µM in [7] turned out to be 18 ×10⁻⁶ cm/s. Moreover, the Drug metabolism result in data set [11], in data set [12], in data set [13] and in [14] was “Metabolite_Detected” in each case. For the same molecule, the half-maximal inhibitory concentration (IC50) in [1] was 4.2 µM.
For the molecule `CC(=O)N1CCc2c(c(Nc3cccc(C)c3)nn2Cc2ccccn2)C1`, in data set [1], the IC50 was 7.3 µM.
Still for that read-out and setting: next, `CC(=O)N1CCc2c(c(Nc3cccc(-c4cnoc4)c3)nn2CC2CC2)C1`: 8.6 µM.
As to `COCCNC(=O)c1cccc(Nc2nn(CC3CC3)c3c2CN(C(C)=O)CC3)c1`, in data set [1], the half-inhibitory concentration (IC50) was above 20 µM.
Regarding `CC(=O)N1CCc2c(c(Nc3cccc(-c4cccnc4)c3)nn2CC2CC2)C1`, the Papp A→B at 3 h, 10 µM in data set [7] came out at 24 ×10⁻⁶ cm/s. Also, in data set [1], the IC50 amounted to 4 µM.
With `Cc1cccc(Nc2n[nH]c3c2CN(S(C)(=O)=O)CC3)c1`, the figures for the half-maximal inhibitory concentration (IC50) in data set [1] and in data set [2] were above 20 µM and above 5 µM, respectively.
In the case of `CC(=O)N1CCc2c(c(Nc3cccc(-c4ccn[nH]4)c3)nn2CC2CC2)C1`, the apical-to-basolateral permeability (Papp A→B) at 3 h, 10 µM in data set [7] turned out to be 6.3 ×10⁻⁶ cm/s. Also, in data set [1], the IC50 was found to be 3.8 µM.
As for `CCC(=O)N1CCOc2c(cc(-c3ccc(OC)c(OC)c3)cc2OC[C@H]2CCCN(C)C2)C1`, the 50% inhibitory concentration (IC50) in data set [4] was above 10 µM; in data set [5], 0.44 µM. In addition, the half-maximal effective concentration (EC50) in data set [6] is above 10 µM.
For `CC(=O)N1CCc2c(c(Nc3ccc(-c4cnn(C)c4)cc3)nn2CC2CC2)C1`, the half-inhibitory concentration (IC50) in data set [1] came to 6.4 µM. The clearance in data set [10] came out at 118 mL/min/kg. The Drug metabolism entry in data set [15] is “Metabolite_Detected”.
For `CC(=O)N1CCc2[nH]nc(Nc3ccc(C)cc3)c2C1`, the IC50 in [1] was above 20 µM; in data set [2], 0.3 µM.
The corresponding values for `CCCC(=O)N1CCc2[nH]nc(Nc3cccc(C)c3)c2C1` are above 20 µM and above 5 µM.
On the same counts, the results for `CC(=O)N1CCc2[nH]nc(Nc3ccc(F)cc3)c2C1` are above 20 µM and 0.91 µM.
For `CC(=O)N1CCc2c(c(Nc3cccc(-c4cn[nH]c4)c3)nn2CC2CC2)C1`, the Papp A→B at 3 h, 10 µM in [7] worked out at 7.3 ×10⁻⁶ cm/s. Further, the half-inhibitory concentration (IC50) in data set [1] turned out to be 4.6 µM.
As for `CC(=O)N1CCc2[nH]nc(Nc3cccc(OC(F)F)c3)c2C1`, the IC50 is above 20 µM in data set [1] and 0.16 µM in data set [2].
In the case of `COc1ccc(CCc2nc3cc(-c4c(C)noc4C)ccc3n2C[C@H](C)N2CCOCC2)cc1Cl`, the IC50 in data set [3] stood at 3.2 µM.
Take `CC(=O)N1CCc2[nH]nc(Nc3ccccc3F)c2C1`: the values for the half-maximal inhibitory concentration (IC50) in data set [1] and in data set [2] were above 20 µM and 1.4 µM, respectively.
The corresponding values for `Cc1cccc(Nc2n[nH]c3c2CN(C(=O)C(F)(F)F)CC3)c1` are above 20 µM and 4.3 µM.
As to `CCC(=O)N1CCc2[nH]nc(Nc3cccc(C)c3)c2C1`, the values for the concentration for half-maximal inhibition (IC50) in data set [1] and in [2] were above 20 µM and 1.4 µM, respectively.
The corresponding values for `CCc1ccc(Nc2n[nH]c3c2CN(C(C)=O)CC3)cc1` are above 20 µM and 0.25 µM.
